# Tests used:
# [1] = tested on: Mero-82 mesothelioma cell line; experiment: Anchorage-independent growth-death assay, Mero-82; assay type: cell-based, human; conditions: single agent, 6 days; for EC50 / IC50: Homo sapiens, 144 h; for EC50 / IC50 / gIC100: anchorage-independent; for EC50: read-out: dEC50; for IC50: read-out: gIC50; for Ymin-T0: negative = net cell kill
# Method: (§1) Five human mesothelioma cell lines were used in these studies. Cells were grown in RPMI1640 media containing 10% FBS, 1% L-glutamine, 1% sodium pyruvate under standard cell culture conditions. The mesothelioma cell lines: Mero-14, Mero-82, NCI-H2052, NO36, and ONE58. The cellular response to Compound A or B was evaluated in an anchorage-independent cell growth assay that quantified the extent of cell growth inhibition and the net change in cell population. The assay was performed in black, clear bottom, untreated 384-well plates (Greiner #781096). It is important to use either non-tissue culture treated or Low Attachment plates to prevent cells from adhering to the plate during the assay. In brief, the assay was performed as described below. A 1% (weight/volume) stock of methylcellulose solution was prepared by dissolving 5 grams of methylcellulose (Sigma #M0512) in 495 mL of cell culture medium. […] Media can be substituted if the cells require different cell culture medium for growth. The dissolution often took a day with vigorous stirring at 4° C. maintaining sterile conditions. Cells were plated into a 384 well plate with assay conditions of 0.65% methylcellulose (final concentration) and 1000 cells per well in a final volume of 48 μL. […] The cells were mixed by inversion to distribute evenly, bubbles were dispersed and 48 μL was placed into the well with a positive displacement pipette. The plates were placed in a cell culture incubator containing 5% CO2 at 37° C. Serial dilution of compound in DMSO was done in a 384 well plate starting with μL of stock compound solution in the first column and 10 μL of DMSO in the other wells. Ten μL from the compound well was transferred into the DMSO containing well, mixed, and the serial dilution was continued with 10 μL transfers across the plate. Then, 4 μL of this DMSO diluted compound was added into wells of a new 384 well plate containing 105 μL of appropriate growth medium. This 'compound plate' was used to dose the assay plates containing cells in methylcellulose. For combination experiments, 20 μL of stock compound solution was a mixture of Compound A and Compound B at the designated ratio. For an example, for 1 to 1 ratio, 10 ul of Compound A at 40 mM and 10 ul of Compound B at 40 mM was mixed to generate ul of stock compound solution with both Compound A and Compound B at 20 mM concentration. […] Serial dilution and compound plate dilution was done as described above. Two μL from each well of the 'compound plate' was added to the individual wells of the 'cell plates' containing the 48 μL of cells in methylcellulose to initiate the assay. These assay plates were placed in the cell culture incubator for 6 days. One 'cell plate' was selected at random and was developed (see below) with Cell [NT] the time compound was added to the remaining cell plates and represents the time equal zero (T0) plate, i.e. it represents the number of cells at the time of compound addition. After 6 days the assay was stopped and the plates were developed by placing a black sticker on bottom of each plate to block light, 25 μL of CTG was added and then plates were incubate for 20 minutes at room temperature. The plates were scanned using a luminescence protocol on the EnVision (Perkin-Elmer). Results were expressed as a percent of the T0 value and plotted against the compound concentration. […] Positive values indicate net cell growth and negative values represent net cell kill. […] The results for the combination were analyzed by determination of Combination Index (CI) values using both mutually exclusive and mutually non-exclusive assumptions (12). The XC50 denotes that each parameter from the growth-death analysis was used, either gIC50 or gIC100 or […] values, to calculate the CI values. The A+B represents the XC50 value for the combination relative to the concentration of A and the B+A represents the XC50 value for the combination relative to the concentration of B in the combination.
# [2] = tested on: NCI-H2052 mesothelioma cell line; experiment: Anchorage-independent growth-death assay, NCI-H2052; assay type: cell-based, human; conditions: single agent, 6 days; for IC50: Homo sapiens, 144 h, read-out: gIC50; for Ymin-T0: negative = net cell kill
# Method: (§2) Five human mesothelioma cell lines were used in these studies. Cells were grown in RPMI1640 media containing 10% FBS, 1% L-glutamine, 1% sodium pyruvate under standard cell culture conditions. The mesothelioma cell lines: Mero-14, Mero-82, NCI-H2052, NO36, and ONE58. The cellular response to Compound A or B was evaluated in an anchorage-independent cell growth assay that quantified the extent of cell growth inhibition and the net change in cell population. The assay was performed in black, clear bottom, untreated 384-well plates (Greiner #781096). It is important to use either non-tissue culture treated or Low Attachment plates to prevent cells from adhering to the plate during the assay. In brief, the assay was performed as described below. A 1% (weight/volume) stock of methylcellulose solution was prepared by dissolving 5 grams of methylcellulose (Sigma #M0512) in 495 mL of cell culture medium. […] Media can be substituted if the cells require different cell culture medium for growth. The dissolution often took a day with vigorous stirring at 4° C. maintaining sterile conditions. Cells were plated into a 384 well plate with assay conditions of 0.65% methylcellulose (final concentration) and 1000 cells per well in a final volume of 48 μL. […] The cells were mixed by inversion to distribute evenly, bubbles were dispersed and 48 μL was placed into the well with a positive displacement pipette. The plates were placed in a cell culture incubator containing 5% CO2 at 37° C. Serial dilution of compound in DMSO was done in a 384 well plate starting with μL of stock compound solution in the first column and 10 μL of DMSO in the other wells. Ten μL from the compound well was transferred into the DMSO containing well, mixed, and the serial dilution was continued with 10 μL transfers across the plate. Then, 4 μL of this DMSO diluted compound was added into wells of a new 384 well plate containing 105 μL of appropriate growth medium. This 'compound plate' was used to dose the assay plates containing cells in methylcellulose. For combination experiments, 20 μL of stock compound solution was a mixture of Compound A and Compound B at the designated ratio. For an example, for 1 to 1 ratio, 10 ul of Compound A at 40 mM and 10 ul of Compound B at 40 mM was mixed to generate ul of stock compound solution with both Compound A and Compound B at 20 mM concentration. […] Serial dilution and compound plate dilution was done as described above. Two μL from each well of the 'compound plate' was added to the individual wells of the 'cell plates' containing the 48 μL of cells in methylcellulose to initiate the assay. These assay plates were placed in the cell culture incubator for 6 days. One 'cell plate' was selected at random and was developed (see below) with Cell [NT] the time compound was added to the remaining cell plates and represents the time equal zero (T0) plate, i.e. it represents the number of cells at the time of compound addition. […] The plates were scanned using a luminescence protocol on the EnVision (Perkin-Elmer). Results were expressed as a percent of the T0 value and plotted against the compound concentration. […] The results for the combination were analyzed by determination of Combination Index (CI) values using both mutually exclusive and mutually non-exclusive assumptions (12). […]
# [3] = tested on: five human mesothelioma cell lines; experiment: Anchorage-independent growth-death assay, summary over the cell line panel; assay type: cell-based; conditions: 6 days of compound exposure, FIG. 4
# Method: Five human mesothelioma cell lines were used in these studies. Cells were grown in RPMI1640 media containing 10% FBS, 1% L-glutamine, 1% sodium pyruvate under standard cell culture conditions. The mesothelioma cell lines: Mero-14, Mero-82, NCI-H2052, NO36, and ONE58.
# The cellular response to Compound A or B was evaluated in an anchorage-independent cell growth assay that quantified the extent of cell growth inhibition and the net change in cell population. The assay was performed in black, clear bottom, untreated 384-well plates (Greiner #781096). It is important to use either non-tissue culture treated or Low Attachment plates to prevent cells from adhering to the plate during the assay. In brief, the assay was performed as described below.
# A 1% (weight/volume) stock of methylcellulose solution was prepared by dissolving 5 grams of methylcellulose (Sigma #M0512) in 495 mL of cell culture medium. […]
# After 6 days the assay was stopped and the plates were developed by placing a black sticker on bottom of each plate to block light, 25 μL of CTG was added and then plates were incubate for 20 minutes at room temperature. The plates were scanned using a luminescence protocol on the EnVision (Perkin-Elmer).
# Results were expressed as a percent of the T0 value and plotted against the compound concentration. […]
# [4] = tested on: Mero-14 mesothelioma cell line; experiment: Anchorage-independent growth-death assay, Mero-14; assay type: cell-based, human; conditions: single agent, 6 days; for EC50 / IC50: Homo sapiens, 144 h; for EC50 / IC50 / gIC100: anchorage-independent; for EC50: read-out: dEC50; for IC50: read-out: gIC50; for Ymin-T0: negative = net cell kill
# Method: as §1
# [5] = tested on: NO36 mesothelioma cell line; experiment: Anchorage-independent growth-death assay, NO36; assay type: cell-based, human; conditions: single agent, 6 days; for IC50: Homo sapiens, 144 h, read-out: gIC50; for Ymin-T0: negative = net cell kill
# Method: as §2
# [6] = tested on: ONE58 mesothelioma cell line; experiment: Anchorage-independent growth-death assay, ONE58; assay type: cell-based, human; conditions: single agent, 6 days; for IC50: read-out: gIC50; for Ymin-T0: negative = net cell kill
# Method: as §1
# [7] = Homo sapiens, 144 h, anchorage-independent
Structure (SMILES),EC50 [1] [nM],IC50 [1] [nM],gIC100 [1] [nM],Ymin-T0 [1] [%],IC50 ([2]; anchorage-independent) [nM],gIC100 ([2]; anchorage-independent) [µM],Ymin-T0 [2] [%],"net change in cell population (Ymin-T0), in words [3]",EC50 [4] [nM],IC50 [4] [nM],gIC100 [4] [nM],Ymin-T0 [4] [%],IC50 ([5]; anchorage-independent) [nM],Ymin-T0 [5] [%],"IC50 [6, 7] [nM]",gIC100 ([6]; anchorage-independent) [µM],Ymin-T0 [6] [%],gIC100 ([5]; anchorage-independent) [nM],"EC50 ([6]; Homo sapiens, 144 h, anchorage-independent, read-out: dEC50) [nM]"
"CONC(=O)c1ccccc1Nc1cc(Nc2cc(C)nn2C(C)C)ncc1Cl [Compound A, 2-[(5-Chloro-2-{[3-methyl-1-(1-methylethyl)-1H-pyrazol-5-yl]amino}-4-pyridinyl)amino]-N-(methyloxy)benzamide]",6900,16,983,−53,408,5.73,−30,generally cytostatic,9580,56,3888,−52,17000,134,23,6.135,−14,–,–
"CC(=O)Nc1cccc(-n2c(=O)n(C3CC3)c(=O)c3c(Nc4ccc(I)cc4F)n(C)c(=O)c(C)c32)c1 [Compound B, N-{3-[3-cyclopropyl-5-(2-fluoro-4-iodo-phenylamino)-6,8-dimethy-2,4,7-trioxo-3,4,6,7-tetrahydro-2H-pyrido[4,3-d]pyrimidin-1-yl]phenyl}acetamide]",191,10,67,−89,16,–,31,cytotoxic in three of the five cell lines,71,6.6,26,−78,134,−17,8.8,0.045,−92,2345,190

# Source: US20160263116A1, “COMBINATIONS” (GlaxoSmithKline LLC, priority 2012, published 2016)
